In this experiment the test system is L1210 leukemia ip in BDF1 mice, survival T/C. As to the kind of experiment: NCI In Vivo Anticancer Drug Screen. Data for tumor model L1210 Leukemia (intraperitoneal) in B6D2F1 (BDF1) mice. The conditions noted are these: endpoint: mean survival time, higher = longer survival. Summed up:
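Antitumor effect is assessed in tumor-bearing animals. Survival in the compound arm is compared with a vehicle-dosed control arm and expressed as their quotient.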

The mark [1] stands for this setting: dose: 50.0 mg/kg/injection, schedule: Q01DX001 (ip), vehicle: saline.
Where [2] appears, read: dose: 100.0 mg/kg/injection, schedule: Q01DX001 (ip), vehicle: saline.
[3] abbreviates: dose: 200.0 mg/kg/injection, schedule: Q01DX001 (ip), vehicle: saline.
Where [4] appears, read: dose: 100.0 mg/kg/injection, schedule: Q01DX009 (ip), vehicle: Klucel (hydroxypropylcellulose) (HPC).
[5] abbreviates: dose: 200.0 mg/kg/injection, schedule: Q01DX009 (ip), vehicle: Klucel (hydroxypropylcellulose) (HPC).
[6] abbreviates: dose: 400.0 mg/kg/injection, schedule: Q01DX009 (ip), vehicle: Klucel (hydroxypropylcellulose) (HPC).
Where [7] appears, read: dose: 50.0 mg/kg/injection, schedule: Q01DX009 (ip), vehicle: saline with Tween-80.
The mark [8] stands for this setting: dose: 100.0 mg/kg/injection, schedule: Q04DX003 (ip), vehicle: saline with Tween-80.
[9] abbreviates: dose: 200.0 mg/kg/injection, schedule: Q04DX003 (ip), vehicle: saline with Tween-80.
Where [10] appears, read: dose: 400.0 mg/kg/injection, schedule: Q01DX001 (ip), vehicle: saline.
Setting [11] is: dose: 100.0 mg/kg/injection, schedule: Q01DX001 (ip), vehicle: carboxymethylcellulose (CMC).
Where [12] appears, read: dose: 200.0 mg/kg/injection, schedule: Q01DX001 (ip), vehicle: carboxymethylcellulose (CMC).
Where [13] appears, read: dose: 400.0 mg/kg/injection, schedule: Q01DX001 (ip), vehicle: carboxymethylcellulose (CMC).
Setting [14] is: dose: 100.0 mg/kg/injection, schedule: Q04DX003 (ip), vehicle: saline.
The mark [15] stands for this setting: dose: 200.0 mg/kg/injection, schedule: Q04DX003 (ip), vehicle: saline.
Where [16] appears, read: dose: 400.0 mg/kg/injection, schedule: Q04DX003 (ip), vehicle: saline.

SMILES strings stand for the structures. Where “and” joins values, the source holds several entries; their conditions need not be identical. Equal values may be shown once. Toxic doses and inconclusive results are not listed.

This is an account of results in PubChem BioAssay AID248 (DTP/NCI, 2004).

Take `COS(=O)(=O)CCC[n+]1ccccc1`: the T/C is 98 % of control under setting [1], 96 % of control under setting [2] and 96 % of control under setting [3].
Turning to `COc1cc(C(=O)N2CCN(c3ccccc3)CC2)c2ccccc2n1`, the T/C (dose: 100.0 mg/kg/injection, schedule: Q01DX001 (ip), vehicle: other) is 98 % of control; the T/C (dose: 200.0 mg/kg/injection, schedule: Q01DX001 (ip), vehicle: other) is 112 % of control; the T/C (dose: 400.0 mg/kg/injection, schedule: Q01DX001 (ip), vehicle: other) is 101 % of control.
Consider `COc1cc(/C=N/NC(=O)c2ccccc2OC)ccc1O`, for which the T/C under setting [4] was 97 % of control, the T/C under setting [5] is 98 % of control and the T/C under setting [6] is 94 % of control.
With `CCCSc1nccc2n[nH]nc12`, the T/C is, setting by setting: under setting [7], 95 % of control; (dose: 50.0 mg/kg/injection, schedule: Q04DX003 (ip), vehicle: saline with Tween-80) 98 % of control; (dose: 100.0 mg/kg/injection, schedule: Q01DX001 (ip), vehicle: saline with Tween-80) 90 % of control; (dose: 100.0 mg/kg/injection, schedule: Q01DX009 (ip), vehicle: saline with Tween-80) 93 % of control; under setting [8], 96 % of control; (dose: 200.0 mg/kg/injection, schedule: Q01DX001 (ip), vehicle: saline with Tween-80) 95 % of control. Moreover, the T/C is 95 % of control (dose: 200.0 mg/kg/injection, schedule: Q01DX009 (ip), vehicle: saline with Tween-80) and 100 % of control under setting [9].
Turning to `COC(=O)NCc1nc2cc3c[nH][nH]c3cc2n1`, the T/C (dose: 75.0 mg/kg/injection, schedule: Q01DX001 (ip), vehicle: carboxymethylcellulose (CMC)) was 91 % of control.
In the case of `[Cu+2].[NH-]C(CS)C(=O)O.[NH-]C(CS)C(=O)O` (stereo not given), the T/C reads like this: (dose: 3.13 mg/kg/injection, schedule: Q04DX002 (ip), vehicle: saline with Tween-80) 97 % of control; (dose: 6.25 mg/kg/injection, schedule: Q04DX002 (ip), vehicle: saline with Tween-80) 93 % of control and 90 % of control; (dose: 25.0 mg/kg/injection, schedule: Q04DX002 (ip), vehicle: saline with Tween-80) 90 % of control; (dose: 125.0 mg/kg/injection, schedule: Q04DX002 (ip), vehicle: saline with Tween-80) 93 % of control.
`COc1cc2c(cc1[N+](=O)[O-])OCO2`: the T/C is 104 % of control under setting [8]; 97 % of control under setting [9]; 98 % of control (dose: 400.0 mg/kg/injection, schedule: Q04DX003 (ip), vehicle: saline with Tween-80).
For `CCC1=CC(=O)CCC1`, the T/C reads like this: under setting [1], 96 % of control; under setting [2], 100 % of control; under setting [3], 102 % of control; under setting [10], 108 % of control.
In the case of `O=C(Cc1ccccc1)Nc1cccc(C(F)(F)F)c1`, the T/C reads like this: under setting [4], 91 % of control; under setting [5], 95 % of control; under setting [6], 98 % of control.
`CC(C)CC(=O)CC(Cl)(C(F)(F)F)C(F)(F)F`: the T/C is, setting by setting: (dose: 100.0 mg/kg/injection, schedule: Q04DX003 (ip), vehicle: gum acacia) 100 % of control; (dose: 200.0 mg/kg/injection, schedule: Q04DX003 (ip), vehicle: gum acacia) 100 % of control; (dose: 400.0 mg/kg/injection, schedule: Q04DX003 (ip), vehicle: gum acacia) 90 % of control.
As to `O=C(O)[C@H](O)[C@@H](O)C(=O)O.[Ga]`, the T/C under setting [2] is 106 % of control, the T/C under setting [3] was 100 % of control and the T/C under setting [10] was 104 % of control.
`NC(=S)N/N=C\c1nccc2c(N)cccc12`: the T/C is 122 % of control (dose: 6.25 mg/kg/injection, schedule: Q01DX009 (ip), vehicle: saline with Tween-80) and 187 % of control under setting [7].
With `O=C(C=C(C(F)(F)F)C(F)(F)F)c1c2ccccc2cc2ccccc12`, the T/C is 87 % of control (dose: 0.18 mg/kg/injection, schedule: Q01DX009 (ip), vehicle: DMSO); 99 % of control (dose: 0.37 mg/kg/injection, schedule: Q01DX009 (ip), vehicle: DMSO); 97 % of control (dose: 0.75 mg/kg/injection, schedule: Q01DX009 (ip), vehicle: DMSO); 93 % of control (dose: 1.5 mg/kg/injection, schedule: Q01DX009 (ip), vehicle: DMSO); 93 % of control and 88 % of control (dose: 3.0 mg/kg/injection, schedule: Q01DX009 (ip), vehicle: DMSO); 100 % of control (dose: 3.0 mg/kg/injection, schedule: Q04DX003 (ip), vehicle: DMSO). Moreover, the T/C by setting is: (dose: 6.0 mg/kg/injection, schedule: Q04DX003 (ip), vehicle: DMSO) 98 % of control; (dose: 12.0 mg/kg/injection, schedule: Q04DX003 (ip), vehicle: DMSO) 97 % of control; (dose: 12.5 mg/kg/injection, schedule: Q04DX003 (ip), vehicle: DMSO) 93 % of control.
Consider `CC(=O)C1=C(O)C2C3c4c[nH]c5cccc(c45)CC3C(C)(C)N2C1=O` (stereo not given), for which the T/C reads like this: (dose: 0.25 mg/kg/injection, schedule: Q01DX001 (ip), vehicle: saline) 101 % of control; (dose: 0.5 mg/kg/injection, schedule: Q01DX001 (ip), vehicle: saline) 103 % of control; (dose: 1.0 mg/kg/injection, schedule: Q01DX001 (ip), vehicle: saline) 101 % of control; (dose: 2.0 mg/kg/injection, schedule: Q01DX001 (ip), vehicle: saline) 105 % of control.
`CSc1nc(F)nc2c1ncn2C1OC(CO)C(O)C1O` (stereo not given): the T/C runs as follows: under setting [2], 88 % of control; under setting [3], 100 % of control.
For the molecule `Cc1ccc(S(=O)(=O)Nc2ccc([N+](=O)[O-])cc2OS(=O)(=O)c2ccc(C)cc2)cc1`, the T/C is 97 % of control (dose: 100.0 mg/kg/injection, schedule: Q01DX009 (ip), vehicle: saline); 101 % of control (dose: 200.0 mg/kg/injection, schedule: Q01DX009 (ip), vehicle: saline); 95 % of control (dose: 400.0 mg/kg/injection, schedule: Q01DX009 (ip), vehicle: saline).
For the molecule `O=C1c2cc([N+](=O)[O-])ccc2-c2cc(Br)cc(Br)c21`, the T/C under setting [11] is 93 % of control, the T/C under setting [12] was 108 % of control and the T/C under setting [13] was 98 % of control.
With `COC1CCCC[CH]1[Hg][Br]` (stereo not given), the T/C (dose: 0.78 mg/kg/injection, schedule: Q01DX009 (ip), vehicle: saline with Tween-80) is 90 % of control; the T/C (dose: 1.56 mg/kg/injection, schedule: Q01DX009 (ip), vehicle: saline with Tween-80) was 96 % of control; the T/C (dose: 3.13 mg/kg/injection, schedule: Q01DX009 (ip), vehicle: saline with Tween-80) is 96 % of control; the T/C (dose: 12.5 mg/kg/injection, schedule: Q01DX009 (ip), vehicle: saline with Tween-80) was 93 % of control.
For `CCC1(C)NC(C(=O)O)CS1` (stereo not given), the T/C reads like this: under setting [14], 105 % of control; under setting [15], 107 % of control; under setting [16], 100 % of control.
`CCc1ccccn1`: the T/C runs as follows: under setting [2], 100 % of control; under setting [3], 102 % of control; under setting [10], 95 % of control.
Regarding `CC1=NNC(=O)C1CCO` (stereo not given), the T/C is, setting by setting: (dose: 25.0 mg/kg/injection, schedule: Q01DX009 (ip), vehicle: Klucel (hydroxypropylcellulose) (HPC)) 98 % of control; (dose: 50.0 mg/kg/injection, schedule: Q01DX009 (ip), vehicle: Klucel (hydroxypropylcellulose) (HPC)) 98 % of control; under setting [4], 92 % of control; (dose: 100.0 mg/kg/injection, schedule: Q04DX003 (ip), vehicle: Klucel (hydroxypropylcellulose) (HPC)) 89 % of control; under setting [5], 95 % of control; (dose: 200.0 mg/kg/injection, schedule: Q04DX003 (ip), vehicle: Klucel (hydroxypropylcellulose) (HPC)) 96 % of control. Besides, the T/C was 97 % of control under setting [6] and 100 % of control (dose: 400.0 mg/kg/injection, schedule: Q04DX003 (ip), vehicle: Klucel (hydroxypropylcellulose) (HPC)).
For `CC1(C)CC=CC(COC(=O)c2ccccc2C(=O)O)C1` (stereo not given), the T/C is 102 % of control under setting [11], 107 % of control under setting [12] and 96 % of control under setting [13].
For `CNC1C(OC2C(OC)OC(C)C2(O)CO)OC(CO)C(O)C1O` (stereo not given), the T/C under setting [14] is 110 % of control, the T/C under setting [15] was 97 % of control and the T/C under setting [16] is 97 % of control.
